Values of other authors, collected in publication PMC5131364, “Pharmacologic modulation of RORγt translates to efficacy in preclinical and translational models of psoriasis and inflammatory arthritis” (Scientific Reports, 2016).

Legend:
[1] = tested on: psoriatic skin; conditions: after 12 weeks of treatment ref 70; cited from earlier work
[2] = tested on: mouse CIA model; design: method as in PMID 24574218; conditions: mouse CIA model ref 49; cited from earlier work

Compound | IL-17A and IL-17F gene expression in psoriatic skin [1] | joint inflammation and clinical scores [2]
guselkumab: anti-IL-23 mAb | significant inhibition | 
OC(c1ccc(-c2ccc(CN3CCN(Cc4ccncc4)CC3)cc2)c(F)c1)(C(F)(F)F)C(F)(F)F [SR2211] |  | reduce joint inflammation
